The source made the active and inactive calls.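 Rule for the calls: active = AC50 no more than tenfold above the top dose tested, or full inhibition at every dose with a flat fit (cut at about 19 µM in these data); inconclusive = flat curve fit with inhibition between 30% and 70%, or poor fit; inactive = AC50 more than tenfold above the top dose tested.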
Test system: HMLE_sh_eGFP viability, CellTiter-Glo luminescence, 72 h
Experiment: cytotoxicity in HMLE control line with eGFP shRNA, dose response, counter-screen for HMLE_sh_ECad selective toxicity project, cell-based, HMLE_sh_eGFP, luminescence (AID 463074);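 note: counterscreen control line to flag general toxicity for the HMLE_sh_ECad screen; potency for loss of viability as luminescence drops below DMSO wells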

Row | SMILES | AC50
1 | O=C(NCCCN1CCOCC1)c1ccc(Sc2ccc(Br)cc2)c([N+](=O)[O-])c1 | < 0.16 µM
2 | CN(C)/N=C/C=C1\CCC/C(=C\c2ccc(F)c(F)c2)C1=O | 10.5 µM
3 | Oc1ccc(N=Nc2c(O)ccc3ccccc23)cc1 | 5.36 µM
4 | O=S(=O)(NC1CC(NS(=O)(=O)OCC(Cl)(Cl)Cl)C2CCCCC12)OCC(Cl)(Cl)Cl (stereo unspecified) | 1.47 µM
5 | Cc1ccc(S(=O)(=O)c2c(C)nn(C(C)(C)C)c2OC(=O)c2ccc(Br)o2)cc1 | 2.64 µM
6 | CCC(O)(CC)C(=O)N/N=C/c1cc(Br)cc(Br)c1O | 19.8 µM
7 | CCOC(=S)SCC(=O)Nc1nc(-c2ccc(Br)cc2)cs1 | 3.54 µM
8 | Cc1noc(C)c1CSc1nc2ccccc2nc1NS(=O)(=O)c1ccc(Cl)cc1 | 1.79 µM
9 | Cc1ccc2[nH]c3nc(N/N=C/c4cccc(O)c4)nnc3c2c1 | 0.248 µM
10 | COc1ccc(C(=O)/C=C2/C(=O)Nc3ccccc32)cc1 | 6.73 µM
11 | CCc1nc(N2CCN(Cc3ccc4c(c3)OCO4)CC2)c2oc3ccccc3c2n1 | 3.85 µM
12 | Cc1ccccc1N1CCN(C(=O)c2ccc(Oc3ccc(C(F)(F)F)cn3)cc2)CC1 | 4.66 µM
13 | CCCCCCOc1ccc(/C(C)=N/NC2=NCCN2)cc1 | 3.69 µM
14 | O=C1NC(=O)N(Cc2ccccc2)C(=O)/C1=C/C=C/c1ccco1 | 2.04 µM
15 | COc1ccccc1-c1cn[nH]c1-c1ccc(OCc2ccccc2F)cc1O | 6.88 µM
16 | COc1ccc(-c2nc(NC(=O)c3cc(C(C)(C)C)nn3C)sc2C)cc1 | 14.2 µM
17 | CCOC(=O)c1sc(NC(=O)c2cc(-c3ccccc3C)nc3ccccc23)c(C#N)c1C | 5.17 µM
18 | C[C@@H]1O[C@@H](O[C@H]2C[C@@H](O)[C@]3(CO)[C@H]4[C@H](O)C[C@]5(C)[C@@H](C6=CC(=O)OC6)CC[C@]5(O)[C@@H]4CC[C@]3(O)C2)[C@H](O)[C@H](O)[C@H]1O | < 0.16 µM
19 | COC(=O)c1ccccc1NC(=O)c1nc(S(=O)(=O)Cc2ccccc2)ncc1Cl | 3.25 µM
20 | Cc1ccc(CNc2nc(-c3cccs3)nc3ccccc23)cc1 | 8.41 µM
21 | CC(=O)Nc1ccc(NC(=O)c2nc(S(=O)(=O)Cc3cccc(C)c3)ncc2Cl)cc1 | 4.99 µM
22 | COc1ccc(-c2noc3c2-c2nc(-c4ccccc4C)sc2CC3)cc1 | 1.03 µM

Row | SMILES | AC50
23 | Cc1ccc(NC(=S)N/N=C/c2c(Cl)cccc2Cl)c(C)c1 | 0.369 µM
24 | COc1ccc(OC)c(C(=O)/C=C/c2ccccc2C(F)(F)F)c1 | 6.67 µM
25 | O=C(Nc1ccon1)c1nc[nH]c1C(=O)NCc1ccccc1 | 1.77 µM
26 | C/C(=N/Nc1ccc([N+](=O)[O-])cc1)c1ccc(C)cc1C | 7.68 µM
27 | COc1ccc(C(=O)c2ccc(OC)cc2OC)cc1 | 5.49 µM
28 | O=[N+]([O-])c1cc(S(=O)(=O)N2CCCCCC2)ccc1F | 3.66 µM
29 | O=[N+]([O-])c1ccc(N/N=C/c2c[nH]c3ccccc23)c(S(=O)(=O)Nc2ccc(Cl)cc2)c1 | 1.66 µM
30 | COc1ccc(NS(=O)(=O)c2ccc3nc(COc4cccc5ccccc45)[nH]c3c2)cc1 | 4.75 µM
31 | COc1ccccc1NC(=O)c1ccc(S(=O)(=O)N2CCCC(C)C2)cc1 (stereo unspecified) | > 19.5 µM (inactive)
32 | CC[C@@H]1Cc2cc(O)ccc2C2=C1c1ccc(O)cc1C[C@H]2CC | 4.15 µM
33 | CCOC(=O)C(C)(C)N(Cc1ccc(Cl)cc1)S(=O)(=O)c1ccc(Cl)c([N+](=O)[O-])c1 | 2.5 µM
34 | O=C(CSCc1cccc(Cl)c1)Nc1ccccc1-c1ccccc1 | > 19.5 µM (inactive)
35 | CC(=O)Nc1ccc(OCC(O)CN2CCN(c3cc(Cl)ccc3C)CC2)cc1 (stereo unspecified) | 5.17 µM
36 | COc1cc(Cl)c(NC2=CC(=O)C(=O)c3ccccc32)c(OC)c1 | 3.57 µM
37 | CC(C)Oc1ccc(C(=O)/C=C2/C(=O)Nc3ccccc32)cc1 | 6.4 µM
38 | Cc1ccsc1/C=C/c1ccc2cccc(O)c2n1 | 17 µM
39 | O=C(c1cccc(S(=O)(=O)N2CCc3ccccc3C2)c1)N1CCN(c2ccc(O)cc2)CC1 | 2.9 µM
40 | COc1ccc(C=C2C=C(C(C)(C)C)C(=O)C(C(C)(C)C)=C2)cc1OC | 3.47 µM
41 | O=C(N/N=C/c1cc(Cl)cc([N+](=O)[O-])c1O)NC12CC3CC(CC(C3)C1)C2 | 4.59 µM
42 | COc1cc(CNCCc2ccccc2)cc(Cl)c1OCc1ccccc1 | 4.84 µM
43 | OC(COc1ccc2ccccc2c1Br)Cn1cnc(-c2ccccc2)c1 (stereo unspecified) | 6.05 µM
44 | O=C(NCCCN1CCOCC1)c1ccc(CSc2ccc(Cl)cc2)cc1 | 7.77 µM

Row | SMILES | AC50
45 | Cc1ccc(C(NC(=O)C(C)C)c2cc([N+](=O)[O-])c3cccnc3c2O)cc1 (stereo unspecified) | 3.16 µM
46 | Clc1ccc(COC(Cn2ccnc2)c2ccc(Cl)cc2Cl)c(Cl)c1 (stereo unspecified) | 6.47 µM
47 | CCCCNc1nc(Nc2ccc(C)c(Cl)c2)c2cnn(C)c2n1 | 11.5 µM
48 | O=C(Nc1ccc2nc3n(c(=O)c2c1)CCCCC3)c1cc([N+](=O)[O-])ccc1F | 6.62 µM
49 | CCCCOc1ccc(C(=O)Nc2ccc3c(c2)OCO3)cc1 | 3.66 µM
50 | O=C(N/N=C/c1cn(-c2cccs2)nc1-c1ccccc1)c1ccc(O)cc1 | 7.76 µM
51 | Cc1cc(C)nc(NC(=O)/C=C/c2ccc3c(c2)OCO3)c1 | 2.8 µM
52 | COc1ccc(/C=N/NC(=O)CCn2cnc(-c3ccccc3)c2-c2ccccc2)cc1OC | 0.922 µM
53 | Cc1nc2sccn2c(=O)c1CCN1CCC(=C(c2ccc(F)cc2)c2ccc(F)cc2)CC1 | 5.23 µM
54 | CCCCCCSc1nsc(NC(=O)CC(C)C)n1 | 9.2 µM
55 | Oc1ccc(/C=N/Nc2ccc(C(F)(F)F)cn2)c(O)c1 | 6.58 µM
56 | C[C@]12CCC(O)CC1CCC1C2CC[C@]2(C)C(c3cc(C(F)(F)F)n[nH]3)CCC12 (stereo partly specified) | 1.78 µM
57 | COc1cc(S(=O)(=O)N2CCCCCC2)c(OC)cc1Br | 2.55 µM
58 | O=C(c1c[nH]c2ccccc12)C(Cl)c1ccccc1 (stereo unspecified) | 11.2 µM
59 | CCn1c(=O)c([N+](=O)[O-])c(Cl)c2ccccc21 | 3.56 µM
60 | COC(=O)C1=C(C)N(Cc2ccccc2)C(=NCc2cccc(Cl)c2)N[C@H]1c1ccccc1 | 7.17 µM
61 | Cc1ccn2c(Nc3ccccc3)c(-c3ccccn3)nc2c1 | 4.57 µM
62 | O=c1cc(-c2ccc(O)cc2)oc2ccc3ccccc3c12 | 7.19 µM
63 | Oc1ccc(Nc2nc(-c3ccc4ccccc4c3)cs2)cc1 | 7.1 µM
64 | COc1ccc(Br)cc1C(C[N+](=O)[O-])c1c(N)n(C)c(=O)n(C)c1=O (stereo unspecified) | 4.93 µM
65 | CC1=CC(=O)C(C(C)C)=C/C1=C(\c1cc(C(C)C)c(OP(=O)(O)O)cc1C)c1ccccc1C(=O)O | 3.6 µM
66 | O=C(NCc1ccc(Cl)cc1)c1cccc(NC(=O)c2ccccc2)c1 | 6.79 µM

Row | SMILES | AC50
67 | O=C1/C(=C\c2cc(Br)cc(Br)c2O)SC(=S)N1Cc1ccccc1 | 0.906 µM
68 | Cc1ccc2nc(-c3cccc(NS(C)(=O)=O)c3)cc(-c3ccccc3)c2c1 | 5.53 µM
69 | Cc1ccc(-c2csc3ncnc(NS(=O)(=O)c4ccc(Cl)cc4)c23)cc1 | 11.6 µM
70 | CCN1CCN(c2cc(-c3ccccc3)nc3cc(-c4cccc(F)c4)nn23)CC1 | 5.65 µM
71 | CCC1=Nc2cc(C(=O)NCc3cccnc3)ccc2Sc2ccc(C)cc21 | 0.816 µM
72 | OCCCCC#Cc1c(-c2ccsc2)sc2ccccc12 | 5.56 µM
73 | CCCCCCSc1cccc(-c2nc3ccc(Cl)cn3c2NCc2ccccc2)c1 | 3.12 µM
74 | COC(=O)C1=C(C)N(Cc2ccccc2)C(=NCc2cccc(Cl)c2)N[C@H]1c1cccc(F)c1 | 3.62 µM
75 | O=C(Nc1ccc(C(O)(C(F)(F)F)C(F)(F)F)cc1)c1ccc(Cl)c([N+](=O)[O-])c1 | 7.08 µM
76 | C/C(=N\Nc1cc(C(F)(F)F)ccc1Cl)c1ccccc1O | 19.9 µM
77 | COc1ccc(N/N=C/c2c(O)n(-c3ccc(C)c(C)c3)c(=O)[nH]c2=O)cc1 | 1.12 µM
78 | CC1(C)CC[C@]2(C(=O)O)CC[C@]3(C)C(=CC[C@@H]4[C@@]5(C)CC[C@H](O[C@@H]6O[C@H](C(=O)O)[C@@H](O)[C@H](O[C@@H]7OC[C@H](O)[C@H](O)[C@H]7O)[C@H]6O)C(C)(C)[C@@H]5CC[C@]43C)[C@@H]2C1 | 5.14 µM
79 | O=C(NNc1ccccc1Br)C(=O)n1ccc2ccccc21 | 8.69 µM
80 | Cc1cccc(C)c1OCc1cc(C(=O)N2CC3C[C@@H]4CC2C[C@H](C3)C4)no1 | 2.69 µM
81 | CCN(Cc1ccccc1)c1ccc(/C=N/N=C(N)N)cc1 | 3.16 µM
82 | C/C(=N\Nc1ccccc1)c1c(O)n(Cc2ccccc2)c(=O)[nH]c1=O | 1.9 µM
83 | Cc1cccc(C(=O)N/N=C/c2ccc(OC3CSC3)cc2)c1 | 2.73 µM
84 | C/C(=N/NC(=O)c1ccc(-c2ccccc2)cc1)c1cc(O)cc(O)c1 | 3.85 µM
85 | CC(C)=CCCC1(C)C=Cc2c(ccc3c2[nH]c2cc(O)c(C)cc23)O1 (stereo unspecified) | 3.58 µM
86 | c1ccc(-c2cc(-c3ccncc3)nc3ccc4ccccc4c23)cc1 | 3.61 µM
87 | Oc1ccc(/C=N/Nc2nc(-c3ccc(Cl)cc3)cc(C(F)(F)F)n2)cc1 | 6.82 µM
88 | N#Cc1c(-c2ccccc2)c(-c2ccccc2)nn(CC(=O)NNC(=O)Nc2ccc(Cl)c(Cl)c2)c1=O | 3.28 µM

Row | SMILES | AC50
89 | O=S(=O)(c1ccc2ccccc2c1)N1CCN(c2ccc(O)cc2)CC1 | 8.59 µM
90 | Cc1cc(N=Nc2ccc3ccccc3c2)ccc1O | 6.83 µM
91 | O=C(NCCc1ccccc1)c1cc(-c2ccccc2)c(N2CCOCC2)s1 | 3.61 µM
92 | COc1ccc(C2=NN(c3nc4ccccc4s3)C(=O)C2)cc1 | 4.7 µM
93 | COc1ccc(/C=N/N(Cc2ccccc2)c2ccccc2)cc1O | 6.77 µM
94 | S=C(NCC1CCCCC1)Nc1ccc(Oc2ccccc2)cc1 | 5.41 µM
95 | CC(=O)c1ccc(NC(=O)c2ccc([N+](=O)[O-])o2)cc1 | 7.8 µM
96 | O=C(Nc1ccc(NC(=S)NC(=O)c2ccccc2Cl)cc1)c1cccc(Cl)c1 | 17.8 µM
97 | COc1ccc(-c2sc3ccccc3c2C#CCCO)cc1 | 6.5 µM
98 | CC1(C)Cc2c(c(N3CCOCC3)nc3sc4c(NN)ncnc4c23)CS1 | 11.4 µM
99 | CC(C)(C)OC(=O)[C@H](Cc1ccccc1)NC(=O)c1[nH]cnc1C(=O)Nc1cccc(Cl)c1 | 3.93 µM
100 | CN1CCN(/N=C/c2ccc(N(c3ccccc3)c3ccccc3)cc2)CC1 | 6.89 µM
101 | Cc1cc([N+](=O)[O-])ccc1-c1ccc(C2Nc3ccccc3C(=O)N2O)o1 (stereo unspecified) | 6.45 µM
102 | CCN1CCN(C(=O)c2ccc(CSc3ccc(C)cc3)cc2)CC1 | 0.22 µM
103 | CCC/C(=C1/c2ccccc2C(=O)N1c1ccccc1)c1ccc2c(c1)OCCO2 | 4.08 µM
104 | S=c1[nH]nc(COc2ccccc2)n1/N=C/C(Cl)=C/c1ccccc1 | 3.55 µM
105 | O=C(Cc1ccc(F)cc1)Nc1nnc(SCC(=O)N2CCCCC2)s1 | > 19.5 µM (inactive)
106 | Cc1ccccc1-n1c(SCC(=O)N/N=C/C=C/c2ccccc2[N+](=O)[O-])nc2ccccc2c1=O | > 19.5 µM (inactive)
